We go through 20 compounds from patent US12685735B2 (Foghorn Therapeutics Inc., priority 2020, dated 2026).

Read-outs that look alike come from different tables or passages of the source.

In test [1] the target is BRG-1 (Homo sapiens, UniProt P51532). Put plainly: ATPase catalytic activity assay of BRG-1 (ADP-Glo). The test is classed as biochemical. Particulars: ATPase catalytic activity, ADP-Glo; for IC50: read-out: BRG1 IC50 (μM)*; for Emax: read-out: BRG1 Max % Inhibition. As for the experimental part: (§1) The ATPase catalytic activity of BRM or BRG-1 was measured by the in vitro biochemical assay using ADP-Glo™ (Promega, V9102). The ADP-Glo™ kinase assay is performed in two steps once the reaction is complete. The first step is to deplete any unconsumed ATP in the reaction. The second step is to convert the reaction product ADP to ATP, which will be utilized by the luciferase to generate luminesce and be detected by a luminescence reader, such as Envision.
Sequence of BRG-1 (P51532 whole entry): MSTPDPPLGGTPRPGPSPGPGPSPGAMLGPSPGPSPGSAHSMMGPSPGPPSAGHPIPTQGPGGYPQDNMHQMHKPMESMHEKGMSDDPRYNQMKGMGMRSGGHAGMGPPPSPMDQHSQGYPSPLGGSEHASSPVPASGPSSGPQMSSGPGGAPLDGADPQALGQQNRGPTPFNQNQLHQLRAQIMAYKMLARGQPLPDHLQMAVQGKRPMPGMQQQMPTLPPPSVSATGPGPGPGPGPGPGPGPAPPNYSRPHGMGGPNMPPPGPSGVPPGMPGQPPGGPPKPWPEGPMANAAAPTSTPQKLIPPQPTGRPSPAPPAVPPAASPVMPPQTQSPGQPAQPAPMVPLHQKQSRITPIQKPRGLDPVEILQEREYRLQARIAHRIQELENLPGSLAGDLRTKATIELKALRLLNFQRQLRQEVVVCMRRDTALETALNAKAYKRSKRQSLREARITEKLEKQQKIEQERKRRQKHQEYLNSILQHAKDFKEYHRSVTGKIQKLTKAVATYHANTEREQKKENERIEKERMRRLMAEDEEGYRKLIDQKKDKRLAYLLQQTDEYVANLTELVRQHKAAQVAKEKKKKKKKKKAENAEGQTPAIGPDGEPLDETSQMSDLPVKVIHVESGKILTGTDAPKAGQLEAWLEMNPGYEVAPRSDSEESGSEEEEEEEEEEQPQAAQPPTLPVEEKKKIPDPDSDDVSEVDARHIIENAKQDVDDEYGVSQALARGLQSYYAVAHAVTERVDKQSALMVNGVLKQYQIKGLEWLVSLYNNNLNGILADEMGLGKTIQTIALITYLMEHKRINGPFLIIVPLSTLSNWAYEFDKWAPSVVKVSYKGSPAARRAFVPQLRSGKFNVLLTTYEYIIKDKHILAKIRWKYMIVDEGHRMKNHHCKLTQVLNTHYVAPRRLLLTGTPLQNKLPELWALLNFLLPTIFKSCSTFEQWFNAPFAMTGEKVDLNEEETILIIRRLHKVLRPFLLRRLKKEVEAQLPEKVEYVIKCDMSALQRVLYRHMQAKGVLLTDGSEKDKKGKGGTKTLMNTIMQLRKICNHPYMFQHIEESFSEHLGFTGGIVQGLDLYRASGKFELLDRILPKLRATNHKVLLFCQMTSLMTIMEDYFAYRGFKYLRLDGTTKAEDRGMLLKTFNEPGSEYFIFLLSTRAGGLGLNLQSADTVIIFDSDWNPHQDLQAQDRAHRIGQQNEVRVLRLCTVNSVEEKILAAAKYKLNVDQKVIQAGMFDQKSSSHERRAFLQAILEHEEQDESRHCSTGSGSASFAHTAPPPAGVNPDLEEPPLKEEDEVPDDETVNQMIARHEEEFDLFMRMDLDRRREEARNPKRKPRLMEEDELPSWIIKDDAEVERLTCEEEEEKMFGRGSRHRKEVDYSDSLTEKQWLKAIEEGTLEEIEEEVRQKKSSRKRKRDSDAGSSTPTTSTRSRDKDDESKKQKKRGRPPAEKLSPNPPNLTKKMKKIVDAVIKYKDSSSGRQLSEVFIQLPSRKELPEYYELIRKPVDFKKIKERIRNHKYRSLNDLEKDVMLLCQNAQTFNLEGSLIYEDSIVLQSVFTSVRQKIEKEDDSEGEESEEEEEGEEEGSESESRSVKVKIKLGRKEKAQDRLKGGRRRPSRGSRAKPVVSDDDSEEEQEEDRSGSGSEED
(§2) Then following addition of 5 μL of ADP-Glo™ Reagent provided in the kit, the reaction incubates at room temperature for 40 minutes. Then 10 μL of Kinase Detection Reagent provided in the kit is added to convert ADP to ATP, and the reaction incubates at room temperature for 60 minutes. Finally, luminescence measurement is collected with a plate-reading luminometer, such as Envision.
(§3) The ADP-Glo™ kinase assay is performed in two steps once the reaction is complete. The first step is to deplete any unconsumed ATP in the reaction. The second step is to convert the reaction product ADP to ATP, which will be utilized by the luciferase to generate luminesce and be detected by a luminescence reader, such as Envision.

For test [2], the target named is BRM (Homo sapiens, UniProt P51531). Description: ATPase catalytic activity assay of BRM (ADP-Glo). The test is classed as biochemical. Particulars: for IC50: read-out: BRM IC50 (μM)*. As to the method:
as §1, §2, §3

Sequence of BRM (P51531 whole entry): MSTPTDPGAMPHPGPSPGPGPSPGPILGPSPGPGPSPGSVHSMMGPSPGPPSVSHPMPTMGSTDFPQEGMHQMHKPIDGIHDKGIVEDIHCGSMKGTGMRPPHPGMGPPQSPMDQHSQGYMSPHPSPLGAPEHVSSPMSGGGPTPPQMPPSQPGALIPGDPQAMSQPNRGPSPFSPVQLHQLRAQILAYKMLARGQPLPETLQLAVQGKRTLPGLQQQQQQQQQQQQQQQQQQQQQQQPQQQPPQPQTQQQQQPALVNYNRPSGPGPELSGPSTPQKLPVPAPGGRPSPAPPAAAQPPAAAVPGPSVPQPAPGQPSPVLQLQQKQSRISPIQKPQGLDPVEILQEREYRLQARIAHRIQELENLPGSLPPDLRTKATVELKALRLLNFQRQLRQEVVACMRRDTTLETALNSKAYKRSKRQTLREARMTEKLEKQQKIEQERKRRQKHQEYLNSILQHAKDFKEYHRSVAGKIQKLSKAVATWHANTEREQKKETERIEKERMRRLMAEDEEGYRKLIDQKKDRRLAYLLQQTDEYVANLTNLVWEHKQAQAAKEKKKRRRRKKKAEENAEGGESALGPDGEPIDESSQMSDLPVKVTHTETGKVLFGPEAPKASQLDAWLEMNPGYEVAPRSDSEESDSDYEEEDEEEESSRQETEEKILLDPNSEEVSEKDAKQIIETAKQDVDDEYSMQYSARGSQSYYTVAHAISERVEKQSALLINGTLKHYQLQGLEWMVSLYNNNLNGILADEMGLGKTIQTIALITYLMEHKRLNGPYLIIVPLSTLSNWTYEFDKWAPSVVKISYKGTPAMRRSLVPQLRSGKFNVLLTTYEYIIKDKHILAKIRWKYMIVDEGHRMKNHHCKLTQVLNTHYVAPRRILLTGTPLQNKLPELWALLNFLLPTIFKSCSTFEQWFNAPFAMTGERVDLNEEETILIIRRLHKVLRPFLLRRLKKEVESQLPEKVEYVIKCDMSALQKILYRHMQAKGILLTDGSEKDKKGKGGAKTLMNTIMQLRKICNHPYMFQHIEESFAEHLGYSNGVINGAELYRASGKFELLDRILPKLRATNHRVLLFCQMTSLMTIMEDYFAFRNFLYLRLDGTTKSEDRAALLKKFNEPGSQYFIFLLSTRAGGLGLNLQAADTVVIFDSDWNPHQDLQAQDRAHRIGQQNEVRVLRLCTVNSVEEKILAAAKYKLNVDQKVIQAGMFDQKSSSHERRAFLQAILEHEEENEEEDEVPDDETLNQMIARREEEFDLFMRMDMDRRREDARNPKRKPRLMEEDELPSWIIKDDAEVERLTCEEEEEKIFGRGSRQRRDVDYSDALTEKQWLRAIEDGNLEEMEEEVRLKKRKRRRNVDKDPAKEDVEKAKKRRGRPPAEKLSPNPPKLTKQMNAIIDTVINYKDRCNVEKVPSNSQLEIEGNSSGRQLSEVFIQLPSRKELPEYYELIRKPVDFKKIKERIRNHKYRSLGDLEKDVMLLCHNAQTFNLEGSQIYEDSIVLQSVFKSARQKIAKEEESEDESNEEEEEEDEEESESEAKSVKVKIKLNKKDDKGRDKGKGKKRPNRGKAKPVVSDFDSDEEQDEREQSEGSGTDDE

Regarding `C[C@@H]1CN(c2cccc(-c3csc(NC(=O)CNC(=O)c4ccc5c(c4)[C@H](C#N)CCO5)n3)n2)C[C@H](C)O1` (racemic) [Compound 405, rac-4-cyano-N-(2-((4-(6-((cis)-2,6-dimethylmorpholino)pyridin-2-yl)thiazol-2-yl)amino)-2-oxoethyl)chromane-6-carboxamide], in test [1], the IC50 (commonly the concentration that gives 50% inhibition) is 1 to 5 µM and the Emax is greater than 90%. Besides, in test [2], the “BRM Max % Inhibition” value is reported as greater than 90% and the half-maximal inhibitory concentration (IC50) lay within 0.1 to 1 µM.
For `C[C@@H]1CN(c2cccc(-c3csc(NC(=O)CNC(=O)c4cccc([C@H]5COC[C@H]5O)c4)n3)c2)C[C@H](C)O1` (relative stereo) [Compound 424, N-(2-((4-(3-((cis)-2,6-dimethylmorpholino)phenyl)thiazol-2-yl)amino)-2-oxoethyl)-3-((cis)-4-hydroxytetrahydrofuran-3-yl)benzamide], in test [1] (30 nM BRG-1, 400 μM ATP), the IC50 was greater than 5 µM and the Emax was greater than 80%. In addition, in test [2] (30 nM BRM, 400 μM ATP), the “BRM Max % Inhibition” value was greater than 80% and the IC50 fell in the range of 0.1 to 1 µM.
Consider `CCC(C)(O)c1cccc(C(=O)NCC(=O)Nc2nc(-c3cccc(-c4ccncc4)c3)cs2)c1` (single isomer, unassigned) [Compound 80], for which, in test [1], the half-inhibitory concentration (IC50) was 0.1 to 1 µM and the Emax is greater than 80%. Also, in test [2], the “BRM Max % Inhibition” value is on record as greater than 90% and the IC50 lay in the range of 1 to 5 µM.
For the compound `CCC(C)(O)c1cccc(C(=O)NCC(=O)Nc2nc(-c3cccc(-c4ccncc4)c3)cs2)c1` (single isomer, unassigned) [Compound 81], in test [1], the “BRG1 Max % Inhibition” value is on record as greater than 70% and the IC50 fell in the range of 0.1 to 1 µM. Also, in test [2], the “BRM Max % Inhibition” value is reported as greater than 90% and the IC50 was 0.1 to 1 µM.
Take `CC1(C#N)CCc2ccc(C(=O)NCC(=O)Nc3nc(-c4cccc(-c5ccncc5)c4)cs3)cc21` (single isomer, unassigned) [Compound 88]: in test [1], the “BRG1 Max % Inhibition” value is on record as greater than 30% and the IC50 is greater than 5 µM. In test [2], the “BRM Max % Inhibition” value is greater than 50% and the IC50 is 0.1 to 1 µM.
As for `CC1(C#N)CCc2ccc(C(=O)NCC(=O)Nc3nc(-c4cccc(-c5ccncc5)c4)cs3)cc21` (single isomer, unassigned) [Compound 103], in test [1], the “BRG1 Max % Inhibition” value was greater than 95% and the IC50 was less than 0.1 µM. Moreover, in test [2], the “BRM Max % Inhibition” value was greater than 95% and the half-maximal inhibitory concentration (IC50) was less than 0.1 µM.
In the case of `CC1(CO)CCc2ccc(C(=O)NCC(=O)Nc3nc(-c4cccc(-c5ccncc5)c4)cs3)cc21` (single isomer, unassigned) [Compound 105], in test [1], the IC50 is less than 0.1 µM and the Emax was greater than 90%. Besides, in test [2], the “BRM Max % Inhibition” value was greater than 95% and the IC50 is less than 0.1 µM.
Regarding `CC1(CO)CCc2ccc(C(=O)NCC(=O)Nc3nc(-c4cccc(-c5ccncc5)c4)cs3)cc21` (single isomer, unassigned) [Compound 107], in test [1], the “BRG1 Max % Inhibition” value is reported as greater than 70% and the IC50 is 0.1 to 1 µM. Also, in test [2], the “BRM Max % Inhibition” value is recorded as greater than 90% and the IC50 lay in the range of 0.1 to 1 µM.
Regarding `C[C@@H]1CN(c2cccc(-c3csc(NC(=O)CNC(=O)c4ccc5c(c4)[C@](C)(CO)CO5)n3)n2)C[C@H](C)O1` (single isomer, unassigned) [Compound 132], in test [1], the concentration for half-maximal inhibition (IC50) is greater than 5 µM and the Emax is greater than 50%. Further, in test [2], the “BRM Max % Inhibition” value was greater than 80% and the IC50 was in the range of 0.1 to 1 µM.
Taken in the same sequence, the figures for `C[C@@H]1CN(c2cccc(-c3csc(NC(=O)CNC(=O)c4ccc5c(c4)[C@@](C)(CO)CO5)n3)n2)C[C@H](C)O1` (single isomer, unassigned) [Compound 133] were 1 to 5 µM, greater than 70%, greater than 95% and 0.1 to 1 µM.
On the same counts, the results for `C[C@@H]1CN(c2cccc(-c3csc(NC(=O)CNC(=O)c4ccc5c(c4)[C@](F)(C#N)COC5)n3)n2)C[C@H](C)O1` (single isomer, unassigned) [Compound 298] are 1 to 5 µM, greater than 95%, greater than 95% and 0.1 to 1 µM.
On the same counts, the results for `C[C@@H]1CN(c2cccc(-c3csc(NC(=O)CNC(=O)c4ccc5c(c4)[C@@](F)(C#N)COC5)n3)n2)C[C@H](C)O1` (single isomer, unassigned) [Compound 299] are 0.1 to 1 µM, greater than 95%, greater than 95% and less than 0.1 µM.
Consider `CN1CCc2ccc(-c3csc(NC(=O)CNC(=O)c4ccc5c(c4)C(C)(CO)CC5)n3)cc2C1=O` (stereo in doubt) [Compound 176, (R)-3-(hydroxymethyl)-3-methyl-N-(2-((4-(2-methyl-1-oxo-1,2,3,4-tetrahydroisoquinolin-7-yl)thiazol-2-yl)amino)-2-oxoethyl)-2,3-dihydro-1H-indene-5-carboxamide], for which, in test [1], the IC50 lay within 0.1 to 1 µM and the Emax was greater than 80%. Moreover, in test [2], the “BRM Max % Inhibition” value was greater than 95% and the IC50 fell in the range of 0.1 to 1 µM.
Turning to `CC1(CO)CCc2ccc(C(=O)NCC(=O)Nc3nc(-c4ccn5ccnc5c4)cs3)cc21` (stereo in doubt) [Compound 178, (R)-3-(hydroxymethyl)-N-(2-((4-(imidazo[1,2-a]pyridin-7-yl)thiazol-2-yl)amino)-2-oxoethyl)-3-methyl-2,3-dihydro-1H-indene-5-carboxamide], in test [1], the 50% inhibitory concentration (IC50) was greater than 5 µM and the Emax was greater than 50%. Also, in test [2], the “BRM Max % Inhibition” value is reported as greater than 80% and the half-inhibitory concentration (IC50) was in the range of 0.1 to 1 µM.
On the same counts, the results for `C[C@@H]1CN(c2cccc(-c3csc(NC(=O)CNC(=O)c4ccc5c(c4)C(F)(C(F)F)CCO5)n3)n2)C[C@H](C)O1` (stereo in doubt) [Compound 272, (R)-4-(difluoromethyl)-N-(2-((4-(6-((cis)-2,6-dimethylmorpholino)pyridin-2-yl)thiazol-2-yl)amino)-2-oxoethyl)-4-fluorochromane-6-carboxamide] are less than 0.1 µM, greater than 95%, greater than 95% and less than 0.1 µM.
Regarding `C[C@@H]1CN(c2cccc(-c3csc(NC(=O)CNC(=O)c4ccc5c(c4)C(F)(C(F)F)CCO5)n3)n2)C[C@H](C)O1` (stereo in doubt) [Compound 273, (S)-4-(difluoromethyl)-N-(2-((4-(6-((cis)-2,6-dimethylmorpholino)pyridin-2-yl)thiazol-2-yl)amino)-2-oxoethyl)-4-fluorochromane-6-carboxamide], in test [1], the IC50 lay in the range of 0.1 to 1 µM and the Emax was greater than 95%. Further, in test [2], the “BRM Max % Inhibition” value is given as greater than 95% and the IC50 is less than 0.1 µM.
On the same counts, the results for `COc1cccc(-c2csc(NC(=O)CNC(=O)c3cc(F)c4c(c3)C(C)(O)COC4)n2)c1` (stereo in doubt) [Compound 280, (R)-8-fluoro-4-hydroxy-N-(2-((4-(3-methoxyphenyl)thiazol-2-yl)amino)-2-oxoethyl)-4-methylisochromane-6-carboxamide] are 1 to 5 µM, greater than 90%, greater than 90% and 0.1 to 1 µM.
Taken in the same sequence, the figures for `CCOC(=O)N1CCCC(c2csc(NC(=O)CNC(=O)c3ccc4c(c3)[C@](C)(F)COC4)n2)C1` (stereo in doubt) [Compound 283, ethyl (S)-3-(2-(2-((S)-4-fluoro-4-methylisochromane-6-carboxamido)acetamido)thiazol-4-yl)piperidine-1-carboxylate] were 0.1 to 1 µM, greater than 95%, greater than 95% and less than 0.1 µM.
On the same counts, the results for `CCOC(=O)N1CCC[C@H](c2csc(NC(=O)CNC(=O)c3ccc4c(c3)C(C)(F)COC4)n2)C1` (stereo in doubt) [Compound 284, ethyl (S)-3-(2-(2-((R)-4-fluoro-4-methylisochromane-6-carboxamido)acetamido)thiazol-4-yl)piperidine-1-carboxylate] are 0.1 to 1 µM, greater than 95%, greater than 95% and less than 0.1 µM.
With `C[C@@H]1CN(c2cccc(-c3csc(NC(=O)CNC(=O)c4ccc5c(c4)C(C)(C#N)CNC5)n3)c2)C[C@H](C)O1` (stereo in doubt) [Compound 287, (S)-4-cyano-N-(2-((4-(3-((cis)-2,6-dimethylmorpholino)phenyl)thiazol-2-yl)amino)-2-oxoethyl)-4-methyl-1,2,3,4-tetrahydroisoquinoline-6-carboxamide], in test [1], the IC50 is less than 0.1 µM and the Emax is greater than 95%. In addition, in test [2], the “BRM Max % Inhibition” value is recorded as greater than 95% and the IC50 was less than 0.1 µM.
